These results are taken from patent publication US8986729B2, “Palatable suspending vehicle for pharmaceutical ingredients” (Fagron, Inc., priority 2004, dated 2015).

Where a name gives a salt, the structure may show the parent alone.

Data set [1] in a line: Settling and resuspendability of drug suspensions after 7 days storage. It counts as physicochemical. The note with it: for Settling: 7 days, dark, room temperature, scale 0-10, 10=none, 0=all at bottom; for Resuspendability: after 7 days, moderate shaking, scale 0-10, 10=perfectly homogenous. The protocol: (§1) Suspensions of baclofen, bethanechol chloride, labetalol hydrochloride, verapamil hydrochloride, or ibuprofen were prepared in VE1 or OO. […] The wetted powder was incorporated into 50 ml VE1 or OO by geometric dilution and stored in individual non-opaque containers. […] The concentrations of the pharmaceutical compounds in suspension represent ‘typical’ prescribed preparations.
The suspensions were stored in the dark at room temperature for 7 days and then settling of the drugs and resuspendability of sedimented drug in OO or VE1 was evaluated. Settling and resuspendability of the drugs was rated on a subjective scale of 0-10: settling (how much product apparent at bottom of container, 10=none, 0=all); resuspendability (how homogenous does the product appear after moderate shaking, 10=perfectly homogenous, 0=not homogenous (heterogeneous)). Resuspendability of sedimented ingredients was evaluated after evaluation of settling. The suspensions were shaken deliberately (stepwise), with frequent inspections of the bottom of the container.

Data set [2] can be described thus: Subjective rating of drug suspensions immediately after preparation (ease of preparation, homogeneity, viscosity). It counts as physicochemical. The note with it: for Homogeneity: scale 0-10, 0=drug settles completely and immediately, 10=consistently homogenous; for Viscosity: subjective scale 0-10, 0=water, 10=thick molasses; for phase separation of the suspending agent from the liquid phase: drug preparation in OO. The protocol: as §1
The suspensions were evaluated immediately after preparation with respect to ease of preparation, homogeneity, and viscosity by the pharmaceutical technician preparing the suspensions. The suspensions were rated on a subjective scale of 0-10: ease of preparation, 0=difficult, 10=very easy; homogeneity, 0=drug settles completely and immediately, 10=consistently homogenous in appearance along the vertical axis; viscosity, 0=water, 10=thick molasses.

Setting [3] is: drug suspension in OO, listed as bethanechol chloride.
Setting [4] is: drug suspension in OO, listed as ibuprofen.
Setting [5] is: drug suspension in OO, hydrochloride.
The mark [6] stands for this setting: drug suspension in OO, listed as verapamil hydrochloride, hydrochloride.

In data set [1] (drug suspension in VE1), `NCC(CC(=O)O)c1ccc(Cl)cc1` (stereo not drawn) [Baclofen, baclofen] returned a Settling of 8 and a Resuspendability of 9. For the same compound, in data set [2] (drug suspension in OO), the Homogeneity was determined as 9 and the Viscosity worked out at 6. Moreover, in data set [2] (drug suspension in VE1), the Homogeneity worked out at 9 and the Viscosity came out at 7.
Take `CC(C[N+](C)(C)C)OC(N)=O` (stereo not drawn) [Bethanechol Chloride, bethanechol chloride]: the Settling in data set [1] (drug suspension in OO) is listed as 6; in data set [1] (setting [3]), “minimal to moderate sedimentation”; in data set [1] (drug suspension in VE1) it was 8. Moreover, the Resuspendability is on record as 9 in data set [1] (drug suspension in OO), “easily resuspended” in data set [1] (setting [3]) and 9 in data set [1] (drug suspension in VE1). For the same compound, the Homogeneity in data set [2] (drug suspension in OO) and in data set [2] (drug suspension in VE1) was 9 throughout. The Viscosity came out at 5 in data set [2] (drug suspension in OO) and 7 in data set [2] (drug suspension in VE1).
In the case of `CC(C)Cc1ccc(C(C)C(=O)O)cc1` (stereo not drawn) [Ibuprofen, ibuprofen], the values for the Settling in data set [1] (drug suspension in OO), in data set [1] (setting [4]) and in data set [1] (drug suspension in VE1) were 7, “minimal to moderate sedimentation” and 8, respectively. The figures for the Resuspendability in data set [1] (drug suspension in OO), in data set [1] (setting [4]) and in data set [1] (drug suspension in VE1) were 9, “easily resuspended” and 9, respectively. Moreover, the Homogeneity in data set [2] (drug suspension in OO) and in data set [2] (drug suspension in VE1) was 9 in each case. Moreover, the Viscosity came to 4 in data set [2] (drug suspension in OO) and 7 in data set [2] (drug suspension in VE1).
Regarding `CC(CCc1ccccc1)NCC(O)c1ccc(O)c(C(N)=O)c1` (stereo not drawn) [Labetalol Hydrochloride, labetalol hydrochloride], the Settling in data set [1] (setting [5]) is 2; in data set [1] (drug suspension in OO, listed as labetalol hydrochloride, hydrochloride) it was “large portion”; in data set [1] (drug suspension in VE1), 9. Also, the Resuspendability in data set [1] (setting [5]) is 3; in data set [1] (drug suspension in OO, listed as Labetalol hydrochloride, hydrochloride) it was “more difficult to resuspend”; in data set [1] (drug suspension in VE1), 9. The “phase separation of the suspending agent from the liquid phase” value in data set [2] is listed as “phase separation”. Further, the Homogeneity in data set [2] (drug suspension in OO) came to 3; in data set [2] (drug suspension in VE1), 9. The results for the Viscosity in data set [2] (drug suspension in OO) and in data set [2] (drug suspension in VE1) were 1 and 7, respectively.
For the compound `COc1ccc(CCN(C)CCCC(C#N)(c2ccc(OC)c(OC)c2)C(C)C)cc1OC` (stereo not drawn) [Verapamil Hydrochloride, verapamil hydrochloride], the results for the Settling in data set [1] (setting [5]), in data set [1] (setting [6]) and in data set [1] (drug suspension in VE1) were 2, “large portion” and 7, respectively. Moreover, the Resuspendability in data set [1] (setting [5]) is recorded as 6; in data set [1] (setting [6]), “more difficult to resuspend”; in data set [1] (drug suspension in VE1), 9. Moreover, in data set [2], the “phase separation of the suspending agent from the liquid phase” value is given as “phase separation”. The Homogeneity in data set [2] (drug suspension in OO) stood at 8; in data set [2] (drug suspension in VE1) it was 9. Further, the Viscosity in data set [2] (drug suspension in OO) worked out at 2; in data set [2] (drug suspension in VE1), 7.
